From patent publication US11787799B2 (priority 2015, dated 2023)

How the values were obtained:
[1] = test system: Coxsackievirus B3-H3; assay: microbe, parasite or virus in culture; assay type: cell-based; conditions: read-out: EC50 CVB3-H3
[2] = test system: Echovirus 11; assay: microbe, parasite or virus in culture; assay type: cell-based; conditions: read-out: EC50 ECHO11
[3] = test system: Poliovirus 1; assay: microbe, parasite or virus in culture; assay type: cell-based; conditions: read-out: EC50 PV1
[4] = test system: Echovirus 6; assay: microbe, parasite or virus in culture; assay type: cell-based; conditions: read-out: EC50 ECHO06
[5] = test system: Enterovirus 71; assay: microbe, parasite or virus in culture; assay type: cell-based; conditions: read-out: EC50 EV71
[6] = test system: HeLa-RW cells
[7] = test system: Poliovirus 3; assay: microbe, parasite or virus in culture; assay type: cell-based; conditions: read-out: EC50 PV3
[8] = test system: LLC cells
[9] = test system: Coxsackievirus A9; assay: microbe, parasite or virus in culture; assay type: cell-based; conditions: read-out: EC50 COX A9
[10] = test system: Coxsackievirus B2; assay: microbe, parasite or virus in culture; assay type: cell-based; conditions: read-out: EC50 CVB2
[11] = test system: Coxsackievirus B4; assay: microbe, parasite or virus in culture; assay type: cell-based; conditions: read-out: EC50 CVB4
[12] = test system: Coxsackievirus B5; assay: microbe, parasite or virus in culture; assay type: cell-based; conditions: read-out: EC50 CVB5
[13] = test system: Echovirus 7; assay: microbe, parasite or virus in culture; assay type: cell-based; conditions: read-out: EC50 ECHO07
[14] = test system: Echovirus 9; assay: microbe, parasite or virus in culture; assay type: cell-based; conditions: read-out: EC50 ECHO09
[15] = test system: Coxsackievirus B1; assay: microbe, parasite or virus in culture; assay type: cell-based; conditions: read-out: EC50 CVB1
[16] = test system: Enterovirus D68/US/KY/14-18953; assay: Antiviral assay, Enterovirus D68 strain US/KY/14-18953 in RD cells; assay type: cell-based
[17] = test system: RD cells
[18] = test system: Enterovirus D68/US/Mo/14-18949; assay: Antiviral assay, Enterovirus D68 strain US/Mo/14-18949 in RD cells; assay type: cell-based
[19] = test system: Echovirus 25; assay: microbe, parasite or virus in culture; assay type: cell-based; conditions: read-out: EC50 ECHO25
[20] = test system: Echovirus 30; assay: microbe, parasite or virus in culture; assay type: cell-based; conditions: read-out: EC50 ECHO30
[21] = test system: Enterovirus D68/Fermon; assay: Antiviral assay, Enterovirus D68 strain Fermon in RD cells; assay type: cell-based

Row | Compound | EC50 [1] [µM] | EC50 [2] [µM] | EC50 [3] [µM] | EC50 [4] [µM] | EC50 [5] [µM] | CC50 [6] [µM] | EC50 [7] [µM] | CC50 [8] [µM] | EC50 [9] [µM] | EC50 [10] [µM] | EC50 [11] [µM] | EC50 [12] [µM] | EC50 [13] [µM] | EC50 [14] [µM] | EC50 [15] [µM] | EC50 [20] [µM] | also measured
1 | CC(C)n1ncc2c(C(=O)Nc3ccccc3F)cc(-c3ccccc3)nc21 [JX-002] | 4.5 ± 1.5 | 2.9 | > 25 | 4.4 ± 0.6 | 5.7 ± 1.5 | 37.5 | > 25 | > 200 | 5 | – | – | – | – | – | – | – | –
2 | CC(C)n1ncc2c(C(=O)Nc3ccccc3F)cc(-c3ccncc3)nc21 [JX-003] | 5.1 ± 0.1 | 5.3 | > 25 | 9.2 ± 3.2 | > 10 | 37.5 | > 25 | 45 | 7 ± 0.8 | – | – | – | – | – | – | – | –
3 | CC(C)n1ncc2c(C(=O)Nc3ccccc3F)cc(-c3ccccn3)nc21 [JX-004] | 6.9 ± 0.7 | 3.8 | > 25 | 7.8 ± 1.8 | > 10 | > 200 | > 25 | 100 | 6.1 ± 2.2 | – | – | – | – | – | – | – | –
4 | CC(C)n1ncc2c(C(=O)Nc3ccccc3F)cc(-c3cccnc3)nc21 [JX-005] | 7 ± 2.4 | 4.5 | > 25 | 9 | > 10 | 37.5 | > 25 | 50 | 7.8 ± 2.6 | – | – | – | – | – | – | – | –
5 | CC(C)n1ncc2c(C(=O)Nc3c(F)cccc3F)cc(-c3cccs3)nc21 [JX-009] | 3.2 ± 0.5 | 2.8 | > 25 | 4.9 ± 0.3 | 3.4 ± 0.7 | > 200 | > 25 | > 200 | 4 | – | – | – | – | – | – | – | –
6 | CC(C)n1ncc2c(C(=O)Nc3ccccc3F)cc(-c3cncs3)nc21 [JX-010] | 3.3 ± 1.4 | 3.2 | > 25 | 4.2 ± 0.3 | 3.7 ± 0.2 | > 200 | > 25 | 100 | 3.1 | – | – | – | – | – | – | – | –
7 | CC(C)n1ncc2c(C(=O)Nc3cccc(F)c3)cc(-c3cccs3)nc21 [JX-021] | 1.3 ± 0.2 | – | > 25 | 1.5 ± 0.5 | 2.4 ± 0.8 | > 200 | > 25 | > 200 | 1.6 | 2.6 ± 0.5 | 2.6 ± 0.5 | 2.3 | 2.9 | 1.2 | 2.6 ± 0.5 | – | –
8 | CC(C)n1ncc2c(C(=O)Nc3ccccn3)cc(-c3cccs3)nc21 [JX-040] | 0.6 | 0.5 | > 10 | 0.4 | 0.5 ± 0.1 | > 200 | > 10 | > 200 | 0.6 | 0.6 | 0.5 | 0.6 | 0.6 | – | 0.6 | < 0.4 | EC50 [16]: 0.27 ± 0.06 µM; CC50 [17]: > 200 µM; EC50 [18]: 0.17 ± 0.03 µM; EC50 [19]: 0.6 µM
9 | CC(C)n1ncc2c(C(=O)Nc3ncccn3)cc(-c3cccs3)nc21 [JX-041] | 0.6 | 0.6 | > 10 | 0.4 | 0.5 ± 0.1 | 37.5 | > 10 | 75 | 0.6 | 0.6 | 0.6 | 0.6 | 0.7 | – | 0.6 | < 0.4 | EC50 [19]: 0.6 µM
10 | CC(C)n1ncc2c(C(=S)Nc3ccc(F)cc3)cc(-c3cccs3)nc21 [JX-046] | – | > 10 | – | > 10 | > 10 | – | – | 20 | > 10 | – | – | – | > 10 | > 10 | – | 6.25 | EC50 [19]: > 10 µM
11 | CC(C)n1ncc2c(C(=O)Nc3cccc(S(=O)(=O)N(C)C)c3)cc(-c3cccs3)nc21 [JX-052] | 1.2 | 0.6 | > 10 | – | 0.8 ± 0.1 | 12 | > 10 | > 200 | 0.8 | 1.2 | 1.2 | 1.2 | 0.78 | 0.2 | 1.2 | 0.4 | EC50 [21]: 0.57 ± 0.25 µM; EC50 [16]: 0.53 ± 0.29 µM; CC50 [17]: > 200 µM; EC50 [18]: 0.31 ± 0.07 µM
12 | CNS(=O)(=O)c1cccc(NC(=O)c2cc(-c3cccs3)nc3c2cnn3C(C)C)c1 [JX-053] | 0.6 | 0.6 | > 10 | – | 0.7 ± 0.1 | 12 | > 10 | 25 | 0.8 | 0.6 | 0.6 | 0.6 | 0.45 | 0.2 | 0.6 | 0.6 | –
13 | CC(C)n1ncc2c(C(=O)Nc3cccnc3)cc(-c3cccs3)nc21 [JX-056] | 0.6 | 0.2 | 10 | – | 0.5 ± 0.1 | 25 | 10 | > 200 | 0.6 | 0.6 | 0.6 | 0.6 | 0.45 | 0.2 | 0.6 | 0.3 | EC50 [21]: < 0.1 µM; EC50 [16]: 0.12 µM; CC50 [17]: 25 µM; EC50 [18]: < 0.1 µM
14 | CC(C)n1ncc2c(C(=O)Nc3ccccn3)cc(-c3ccsc3)nc21 [JX-057] | 1.2 | 1.2 | > 10 | – | 0.8 | 18 | > 10 | 25 | – | 1.2 | 1.2 | 1.2 | – | 0.4 | 1.2 | – | –
15 | CC(C)n1ncc2c(C(=O)Nc3ncccn3)cc(-c3ccsc3)nc21 [JX-058] | 1.2 | 1.3 | > 10 | – | 1.2 | 40 | > 10 | 50 | – | 1.2 | 1.2 | 1.2 | – | 0.6 | 1.2 | – | –
16 | CC(C)n1ncc2c(C(=O)Nc3ccncn3)cc(-c3ccsc3)nc21 [JX-059] | 1.2 | 1.2 | > 10 | – | 0.8 | > 200 | > 10 | > 200 | – | 1.2 | 1.2 | 1.2 | – | 0.4 | 1.2 | – | EC50 [21]: 0.69 ± 0.09 µM; EC50 [16]: 0.87 ± 0.31 µM; CC50 [17]: 75 µM; EC50 [18]: 0.57 ± 0.22 µM
17 | CC(C)n1ncc2c(C(=O)N(C)c3ccccn3)cc(-c3cccs3)nc21 [JX-074] | > 10 | > 10 | > 10 | > 10 | > 10 | – | > 10 | – | > 10 | > 10 | > 10 | > 10 | > 10 | > 10 | > 10 | > 10 | EC50 [19]: > 10 µM
